# Results as given in PMC11224465, “Characterization of the somatostatin system in tilapia: implications for growth and reproduction” (Frontiers in Endocrinology, 2024).
# Values joined by “and” are separate entries in the source; they are usually repeats but may differ in a detail not shown here. Equal values may be shown once. “Also recorded” adds a separate entry of the source. Positions of bridges follow the written chain, without caps; N, C: chain ends. Non-standard residues stand in square brackets, D forms with d. Residues, ends and D or L forms follow the SMILES beside them. *: point of attachment. Ahp = NCCCCCCC(=O)O; Bn = c1ccc(C*)cc1
# Assays:
# tilapia SSTR5b [1] = target: T1, tilapia SSTR5b (Oreochromis niloticus, UniProt I3J1C6); test: Cre-luc reporter assay, agonist/antagonist combination plus forskolin, COS-7 cells with SSTR5b; type: cell-based, Nile tilapia (Oreochromis niloticus); conditions: mean ± SEM
# T1 sequence (I3J1C6 1-359): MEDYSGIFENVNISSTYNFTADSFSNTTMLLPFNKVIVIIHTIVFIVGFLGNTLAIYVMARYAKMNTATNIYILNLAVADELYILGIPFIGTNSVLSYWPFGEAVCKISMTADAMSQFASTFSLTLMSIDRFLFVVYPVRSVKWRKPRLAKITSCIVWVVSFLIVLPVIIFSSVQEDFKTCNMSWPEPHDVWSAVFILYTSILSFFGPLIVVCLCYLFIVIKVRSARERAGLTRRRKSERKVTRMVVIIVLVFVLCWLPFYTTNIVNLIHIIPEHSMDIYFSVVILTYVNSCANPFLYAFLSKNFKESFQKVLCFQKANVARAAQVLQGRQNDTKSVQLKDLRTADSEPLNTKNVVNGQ
# From the text: (§1) The signaling pathways of SSTRs were studied by inserting the entire coding sequence of the four receptors expressed in the pituitary (SSTR2a, SSTR3a, SSTR5b, and SSTR3b; accession nos. XP_003438730.1, XP_019215873.1, XP_003452896.1, and XP_019213185.1, respectively; Table 1 ) into pcDNA3.1 (Invitrogen) and verified by cloning and sequencing. The sequences were obtained from GenScript Biotech based on sequence information retrieved from GenBank. The procedures for transient transfection of the different cell lines and receptor stimulation have been described previously ([35], [36]). In brief, COS-7 cells were cotransfected with a luciferase reporter plasmid (Cre-luc; 3 µg) and one of the SSTRs (3 µg). As a control treatment, the […] (data not shown). […] Six hours after stimulation, the cells were analyzed using the GloMax multidetection system (Promega).
# (§2) In another set of assays, the SST receptors were exposed to increasing concentrations of cyclosomatostatin, an SSTR antagonist (0–1000 nM; each in triplicate), in combination with octreotide, an SSTR agonist (10 nM), and FSK (20 μM), or increasing concentrations of octreotide (0–1000 nM; each in triplicate) in combination with cyclosomatostatin (10 nM) and FSK (20 μM). […]
# LH plasma levels = test: In vivo effect on LH plasma levels (ELISA) after IP injection; parameters: species or system Nile tilapia (Oreochromis niloticus); conditions: female tilapia, 100 µg/kg IP, sampled 2, 4, 6, 24 h
# Protocol: (§3) Adult female tilapia (body weight 89.29 ± 32.93 g) were injected IP with saline, cyclosomatostatin, or octreotide (100 μg/kg; n = 8 fish per group). The fish were bled from the caudal blood vessels into heparinized syringes at 0, 2, 4, 6, and 24 h after injection. Blood was centrifuged at 3,200 rpm for 30 min at 4°C to obtain plasma samples, which were stored at -20°C until assayed. This standard protocol was used previously to test the effect of GnRH and other hypothalamic neuropeptides on circulating levels of LH, FSH, and GH in tilapia ([33], [37], [38]). Three independent experiments were performed for each treatment. Plasma levels of LH, FSH, and GH were measured by specific competitive ELISAs developed for tilapia ([39], [40]) based on recombinant ([…] or rtiGH. The […] produced against […]β ([40]), or rtGH ([39]), and […]βα ([37]) or rtGH ([39]) was used to generate a standard curve. The sensitivity of plasma measurements was 15.84 pg/ml for LH, 0.24 pg/ml for FSH, and 35.0 pg/ml for GH.
# GH plasma levels = test: In vivo effect on GH plasma levels (ELISA) after IP injection; parameters: species or system Nile tilapia (Oreochromis niloticus); conditions: female tilapia, 100 µg/kg IP, sampled 2, 4, 6, 24 h
# Protocol: as §3
# FSH plasma levels = test: In vivo effect on FSH plasma levels (ELISA) after IP injection; parameters: species or system Nile tilapia (Oreochromis niloticus); conditions: female tilapia, 100 µg/kg IP, sampled 2, 4, 6, 24 h
# Protocol: as §3
# tilapia SSTR3a [2] = target: T2, tilapia SSTR3a (Oreochromis niloticus, UniProt I3K8H1); test: Cre-luc reporter assay, agonist/antagonist combination plus forskolin, COS-7 cells with SSTR3a; type: cell-based, Nile tilapia (Oreochromis niloticus); conditions: in presence of octreotide 10 nM and FSK 20 μM, mean ± SEM, read-out: EC50 on SST-R3a (Cre-luciferase)
# T2 sequence (I3K8H1 1-482): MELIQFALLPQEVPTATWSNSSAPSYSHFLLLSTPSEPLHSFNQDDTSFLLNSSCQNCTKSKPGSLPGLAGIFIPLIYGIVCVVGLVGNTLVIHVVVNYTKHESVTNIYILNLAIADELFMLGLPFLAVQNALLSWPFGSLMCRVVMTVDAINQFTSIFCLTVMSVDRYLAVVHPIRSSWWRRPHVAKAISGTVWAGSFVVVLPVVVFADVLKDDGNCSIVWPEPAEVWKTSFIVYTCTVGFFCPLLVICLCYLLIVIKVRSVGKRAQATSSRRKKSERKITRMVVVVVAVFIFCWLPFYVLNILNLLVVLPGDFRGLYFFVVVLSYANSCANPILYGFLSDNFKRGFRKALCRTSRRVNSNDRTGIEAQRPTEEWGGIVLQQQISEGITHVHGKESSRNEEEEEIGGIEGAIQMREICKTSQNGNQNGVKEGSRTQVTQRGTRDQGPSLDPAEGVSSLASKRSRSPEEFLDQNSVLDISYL
# From the text: as §1, §2
# tilapia SSTR2a [3] = target: T3, tilapia SSTR2a (Oreochromis niloticus, UniProt I3KUD5); test: Cre-luc reporter assay, agonist/antagonist combination plus forskolin, COS-7 cells with SSTR2a; type: cell-based, Nile tilapia (Oreochromis niloticus); conditions: mean ± SEM
# T3 sequence (I3KUD5 1-379): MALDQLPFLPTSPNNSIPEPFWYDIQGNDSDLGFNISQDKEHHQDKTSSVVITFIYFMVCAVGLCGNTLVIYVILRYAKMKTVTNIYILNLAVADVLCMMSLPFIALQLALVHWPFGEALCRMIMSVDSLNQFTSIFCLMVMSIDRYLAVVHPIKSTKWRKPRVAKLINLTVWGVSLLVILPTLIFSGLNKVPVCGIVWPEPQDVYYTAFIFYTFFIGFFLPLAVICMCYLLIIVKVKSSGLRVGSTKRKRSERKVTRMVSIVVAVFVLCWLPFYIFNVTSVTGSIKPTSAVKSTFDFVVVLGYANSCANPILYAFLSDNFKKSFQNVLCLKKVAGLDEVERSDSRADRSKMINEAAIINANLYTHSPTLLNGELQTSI
# From the text: as §1, §2
# tilapia SSTR3b [4] = target: T4, tilapia SSTR3b (Oreochromis niloticus, UniProt I3L056); test: Cre-luc reporter assay, agonist/antagonist combination plus forskolin, COS-7 cells with SSTR3b; type: cell-based, Nile tilapia (Oreochromis niloticus)
# T4 sequence (I3L056 29-511): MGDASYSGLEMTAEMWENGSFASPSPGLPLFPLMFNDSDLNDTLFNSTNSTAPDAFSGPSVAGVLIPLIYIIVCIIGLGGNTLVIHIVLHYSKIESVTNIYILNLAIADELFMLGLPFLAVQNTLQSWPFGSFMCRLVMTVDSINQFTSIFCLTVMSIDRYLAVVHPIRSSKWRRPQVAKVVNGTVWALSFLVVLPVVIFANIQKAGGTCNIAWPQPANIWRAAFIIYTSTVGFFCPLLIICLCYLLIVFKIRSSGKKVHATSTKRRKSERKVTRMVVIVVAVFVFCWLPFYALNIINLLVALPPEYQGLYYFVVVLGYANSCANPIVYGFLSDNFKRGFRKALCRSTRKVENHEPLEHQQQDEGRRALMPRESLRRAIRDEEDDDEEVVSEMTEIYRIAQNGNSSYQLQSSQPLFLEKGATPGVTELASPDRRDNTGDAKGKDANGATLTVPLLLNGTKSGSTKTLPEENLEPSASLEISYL
# From the text: as §1
# In another set of assays, the SST receptors were exposed to increasing concentrations of cyclosomatostatin, an SSTR antagonist (0–1000 nM; each in triplicate), in combination with octreotide, an SSTR agonist (10 nM), and FSK (20 μM), or increasing concentrations of octreotide (0–1000 nM; each in triplicate) in combination with cyclosomatostatin (10 nM) and FSK (20 μM). Three individual experiments were conducted using distinct batches of COS-7 cells for each experiment and including three replicates for every concentration.
# tilapia SSTR5b [5] = target: T1, tilapia SSTR5b; test: Cre-luc reporter assay, ligand plus forskolin, COS-7 cells transfected with SSTR5b; type: cell-based, Nile tilapia (Oreochromis niloticus); conditions: FSK 20 μM, mean ± SEM, read-out: IC50 on SST-R5b (Cre-luciferase)
# From the text: as §1
# tilapia SSTR3b [6] = target: T4, tilapia SSTR3b; test: Cre-luc reporter assay, ligand plus forskolin, COS-7 cells transfected with SSTR3b; type: cell-based, Nile tilapia (Oreochromis niloticus); conditions: FSK 20 μM alone as backdrop
# Protocol: In brief, COS-7 cells were cotransfected with a luciferase reporter plasmid (Cre-luc; 3 µg) and one of the SSTRs (3 µg). […] Six hours after stimulation, the cells were analyzed using the GloMax multidetection system (Promega).
# SSTR5 = system: SSTR5; parameters: method as in PMID 8532003; conditions: human; cited from earlier work
# tilapia SSTR2a [7] = target: T3, tilapia SSTR2a; test: Cre-luc reporter assay, ligand plus forskolin, COS-7 cells transfected with SSTR2a; type: cell-based, Nile tilapia (Oreochromis niloticus); conditions: FSK 20 μM, subnanomolar concentrations
# From the text: as §1
# human SSTR2 = system: human SSTR2; parameters: method as in PMID 8532003; conditions: cited from earlier work
# aggressive behavior = system: aggressive behavior; parameters: method as in PMID 16887916; conditions: cichlid fish, 4 mg/kg; cited from earlier work
# tilapia SSTR3a [8] = target: T2, tilapia SSTR3a; test: Cre-luc reporter assay, ligand plus forskolin, COS-7 cells transfected with SSTR3a; type: cell-based, Nile tilapia (Oreochromis niloticus); conditions: FSK 20 μM, mean ± SEM, read-out: IC50 on SST-R3a (Cre-luciferase)
# From the text: as §1
# SSTR3a = system: SSTR3a; parameters: method as in PMID 8532003; conditions: cited from earlier work
smiles,measurement,setting,value
"C[C@@H](OCc1ccccc1)[C@@H]1NC(=O)[C@H](CCCCN)NC(=O)[C@@H](Cc2c[nH]c3ccccc23)NC(=O)[C@H](Cc2ccccc2)NC(=O)CCCCCCNC1=O [Cyclosomatostatin, cyclosomatostatin] (cyclo([Ahp]F[dW]KT(Bn)); ring closure inferred)",EC50,"tilapia SSTR5b [1]; in presence of octreotide 10 nM and FSK 20 μM, read-out: EC50 on SST-R5b (Cre-luciferase)",2.15 ± 0.009 nM
same,LH plasma levels vs control,LH plasma levels,increased
same,LH plasma levels vs control,LH plasma levels; listed as SSTR antagonist,returned to baseline after 4 h
same,GH plasma levels vs control,GH plasma levels,the same as in the control fish
same,FSH plasma levels vs control,FSH plasma levels,increased
same,FSH plasma levels vs control,FSH plasma levels; listed as SSTR antagonist,remained elevated for 6 h
same,EC50,tilapia SSTR3a [2],0.1 ± 0.001 nM
same,EC50,"tilapia SSTR2a [3]; in presence of octreotide 10 nM and FSK 20 μM, read-out: EC50 on SST-R2a (Cre-luciferase)",189 ± 4.34 nM
same,EC50,"tilapia SSTR3b [4]; COS-7 cells, in presence of octreotide 10 nM and FSK 20 μM, mean ± SEM, read-out: EC50 on SST-R3b (Cre-luciferase)",46.2 ± 3.82 nM
same,Activation of SSTR3b (Cre-luc),tilapia SSTR3b [4]; in the presence of both FSK and octreotide,efficient activation
"C[C@@H](O)[C@@H]1NC(=O)[C@H](CCCCN)NC(=O)[C@@H](Cc2c[nH]c3ccccc23)NC(=O)[C@H](Cc2ccccc2)NC(=O)[C@@H](NC(=O)[C@H](N)Cc2ccccc2)CSSC[C@@H](C(=O)N[C@H](CO)[C@@H](C)O)NC1=O [Octreotide, octreotide]",IC50,tilapia SSTR5b [5],906 nM and 157 nM
same,Effect on SSTR3b Cre-luc activity,tilapia SSTR3b [6],no discernible activation
same,Affinity to SSTR5,SSTR5,high affinity
same,Effect on tiSSTR2a Cre-luc activity,tilapia SSTR2a [7],inhibited
same,Affinity to human SSTR2,human SSTR2,high affinity
same,IC50,"tilapia SSTR5b [1]; in presence of cyclosomatostatin 10 nM and FSK 20 μM, read-out: IC50 on SST-R5b (Cre-luciferase)",17.4 ± 3.14 nM
same,LH plasma levels vs control,LH plasma levels,remained similar to the control; also recorded: no significant effect
same,LH plasma levels vs control,LH plasma levels; listed as octreotide,remained unaffected
same,Aggressive behavior,aggressive behavior,decrease
same,GH plasma levels vs control,GH plasma levels,significantly decreased
same,IC50,tilapia SSTR3a [8],0.004 nM
same,FSH plasma levels vs control,FSH plasma levels,reduced
same,FSH plasma levels vs control,FSH plasma levels; listed as octreotide,decreased
same,IC50,"tilapia SSTR2a [3]; in presence of cyclosomatostatin 10 nM and FSK 20 μM, read-out: IC50 on SST-R2a (Cre-luciferase)",0.81 ± 0.01 nM
same,Affinity to SSTR3a,SSTR3a,moderate affinity
same,IC50,"tilapia SSTR3b [4]; COS-7 cells, in presence of cyclosomatostatin 10 nM and FSK 20 μM, mean ± SEM, read-out: IC50 on SST-R3b (Cre-luciferase)",0.35 ± 0.04 nM
CC(C)C[C@@H]1NC(=O)CNC(=O)[C@H](CCCCN)NC(=O)[C@H](Cc2c[nH]c3ccccc23)NC(=O)[C@H](Cc2ccc(O)cc2)NC(=O)[C@H](Cc2ccccc2)NC(=O)[C@H](CC(N)=O)NC(=O)[C@H](CCCCN)NC(=O)[C@@H](NC(=O)CNC(=O)[C@H](C)N)CSSC[C@@H](C(=O)O)NC(=O)[C@H](CO)NC(=O)[C@H]([C@@H](C)O)NC1=O [SST3] (H-AGCKNFYWKGLTSC-OH; disulfide 3-14; N-terminus and C-terminus assumed),IC50,tilapia SSTR5b [5],720.2 ± 0.5 nM
same,Effect on tiSSTR2a Cre-luc activity,tilapia SSTR2a [7],inhibited
same,IC50,tilapia SSTR3a [8],572.9 ± 0.1 nM
C[C@H](N)C(=O)N1CCC[C@H]1C(=O)N[C@H]1CSSC[C@@H](C(=O)O)NC(=O)[C@H](CO)NC(=O)[C@H]([C@@H](C)O)NC(=O)[C@H](Cc2ccccc2)NC(=O)[C@H]([C@@H](C)O)NC(=O)[C@H](CCCCN)NC(=O)[C@H](Cc2c[nH]c3ccccc23)NC(=O)[C@H](Cc2ccccc2)NC(=O)[C@H](Cc2ccccc2)NC(=O)[C@H](CC(N)=O)NC(=O)[C@H](CCCCN)NC1=O [SST6] (H-APCKNFFWKTFTSC-OH; disulfide 3-14; N-terminus and C-terminus assumed),IC50,tilapia SSTR5b [5],906.1 ± 0.5 nM
same,Effect on tiSSTR2a Cre-luc activity,tilapia SSTR2a [7],inhibited
same,IC50,tilapia SSTR3a [8],3.75 ± 0.04 nM
